Data as given in patent US10736883B2, “Triazole furan compounds as agonists of the APJ receptor” (AMGEN INC., priority 2016, dated 2020).

Molecular target: APJ receptor (Homo sapiens (Human), UniProt P35414)
Assay: [35S]GTPγS binding assay on membranes from CHO cells stably expressing human APJ receptor
Assay type: biochemical
Details: membranes of CHO cells stably expressing human APJ receptor, means of several independent experiments, read-out: Activity hAPJ SPA EC50 IP
Method in brief: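 EC50 values were obtained by non-linear regression of [35S]GTPγS (0.2 nM) binding after 90 min at RT, with nonspecific binding defined by 100 μM GTPγS. Reactions used human APJ–expressing CHO cell membranes on WGA PS beads in HEPES pH 7.5 buffer with 5 mM MgCl2, 200 mM NaCl, 3 μM GDP and 0.1% BSA.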

APJ receptor, sequence (P35414 whole entry): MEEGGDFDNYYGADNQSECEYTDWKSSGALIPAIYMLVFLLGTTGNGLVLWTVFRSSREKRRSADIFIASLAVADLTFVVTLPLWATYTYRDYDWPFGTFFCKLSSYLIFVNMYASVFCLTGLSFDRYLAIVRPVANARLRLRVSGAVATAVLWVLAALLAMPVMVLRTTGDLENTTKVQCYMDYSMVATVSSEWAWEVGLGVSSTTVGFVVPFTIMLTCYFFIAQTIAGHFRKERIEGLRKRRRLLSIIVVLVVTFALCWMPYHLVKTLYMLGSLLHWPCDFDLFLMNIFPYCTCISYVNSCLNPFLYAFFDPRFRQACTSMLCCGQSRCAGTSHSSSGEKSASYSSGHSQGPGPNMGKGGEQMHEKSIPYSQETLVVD

| Molecule | EC50 |
| --- | --- |
| COc1cccc(OC)c1-n1c(NS(=O)(=O)[C@H]2C[C@@H](O)CN(c3cncc(C#N)c3)C2)nnc1-c1ccc(C)o1 (single isomer, unassigned) [Example 325.0, (3S,5R)-1-(5-Cyano-3-pyridinyl)-N-(4-(2,6-dimethoxyphenyl)-5-(5-methyl-2-furanyl)-4H-1,2,4-triazol-3-yl)-5-hydroxy-3-piperidinesulfonamide or (3R,5S)-1-(5-cyano-3-pyridinyl)-N-(4-(2,6-dimethoxyphenyl)-5-(5-methyl-2-furanyl)-4H-1,2,4-triazol-3-yl)-5-hydroxy-3-piperidinesulfonamide] | 230 pM |
| COc1cccc(OC)c1-n1c(NS(=O)(=O)[C@@H](C)[C@](C)(N)c2ncc(F)cn2)nnc1-c1ccc(C)o1 (single isomer, unassigned) [Example 246.0] | 1400 pM |
| COc1cccc(OC)c1-n1c(NS(=O)(=O)CCc2ncc(Cl)cc2-c2cc[nH]n2)nnc1-c1ccco1 [Example 223.0, 2-(5-chloro-3-(1H-pyrazol-3-yl)-2-pyridinyl)-N-(4-(2,6-dimethoxyphenyl)-5-(2-furanyl)-4H-1,2,4-triazol-3-yl)ethanesulfonamide] | 320 pM |
| COc1cccc(OC)c1-n1c(NS(=O)(=O)C[C@@](C)(F)c2ncc(F)cn2)nnc1-c1ccc(C)o1 (single isomer, unassigned) [Example 237.0, (2S)—N-(4-(2,6-Dimethoxyphenyl)-5-(5-methyl-2-furanyl)-4H-1,2,4-triazol-3-yl)-2-fluoro-2-(5-fluoro-2-pyrimidinyl)-1-propanesulfonamide or (2R)—N-(4-(2,6-dimethoxyphenyl)-5-(5-methyl-2-furanyl)-4H-1,2,4-triazol-3-yl)-2-fluoro-2-(5-fluoro-2-pyrimidinyl)-1-propanesulfonamide] | 580 pM |
| (2R)-1-(3-cyano-5-fluoro-2-pyridinyl)-N-(4-(2,6-dimethoxyphenyl)-5-(2-furanyl)-4H-1,2,4-triazol-3-yl)-2-propanesulfonamide or (2S)-1-(3-cyano-5-fluoro-2-pyridinyl)-N-(4-(2,6-dimethoxyphenyl)-5-(2-furanyl)-4H-1,2,4-triazol-3-yl)-2-propanesulfonamide [Example 29.0] | 820 pM |
| COc1ccccc1-n1c(NS(=O)(=O)[C@@H](C)[C@H](C)c2ncc(F)cn2)nnc1-c1ccc(C)o1 [Example 172.0, (2S,3R)-3-(5-Fluoro-2-pyrimidinyl)-N-(4-(2-methoxyphenyl)-5-(5-methyl-2-furanyl)-4H-1,2,4-triazol-3-yl)-2-butanesulfonamide] | 1200 pM |
| COc1cccc(OC)c1-n1c(NS(=O)(=O)[C@@H](C)[C@H](O)c2cn3ccccc3n2)nnc1-c1ccc(C)o1 (single isomer, unassigned) [Example 265.0, (1R,2S)—N-(4-(2,6-Dimethoxyphenyl)-5-(5-methyl-2-furanyl)-4H-1,2,4-triazol-3-yl)-1-hydroxy-1-imidazo[1,2-a]pyridin-2-yl-2-propanesulfonamide or (1S,2R)—N-(4-(2,6-dimethoxyphenyl)-5-(5-methyl-2-furanyl)-4H-1,2,4-triazol-3-yl)-1-hydroxy-1-imidazo[1,2-a]pyridin-2-yl-2-propanesulfonamide] | 180 pM |
| CCc1ccc(-c2nnc(NS(=O)(=O)[C@@H](C)Cc3ncc(F)cn3)n2-c2c(OC)cccc2OC)o1 (single isomer, unassigned) [Example 99.0, (2S)—N-(4-(2,6-Dimethoxyphenyl)-5-(5-ethyl-2-furanyl)-4H-1,2,4-triazol-3-yl)-1-(5-fluoro-2-pyrimidinyl)-2-propanesulfonamide or (2R)—N-(4-(2,6-dimethoxyphenyl)-5-(5-ethyl-2-furanyl)-4H-1,2,4-triazol-3-yl)-1-(5-fluoro-2-pyrimidinyl)-2-propanesulfonamide] | 1000 pM |
